Experimental data taken from patent EP0613890A1, “Novel triazole compound, process for preparing the same and antifungal agent containing the same” (NIHON NOHYAKU CO., LTD., priority 1993, dated 1994).

Experiments:
[1] = system: Candida albicans IFO 1270; assay: Growth inhibition of Candida albicans in Sabouraud's glucose broth (Test Example 1); assay type: cell-based; details: Candida albicans IFO 1270, Sabouraud's glucose broth
Experimental: To 9.8 mℓ of Sabouraud's glucose broth, 0.1 mℓ of cell suspension of Candida albicans IFO 1270 (1.0 x 10⁷ cells/mℓ) and 0.1 mℓ of test compound solution (1000 or 10 µg/mℓ) was added. The growth inhibition ratio (%) was determined. For comparison, cis-1-acetyl-4-[4-[[2-(2,4-dichrolophenyl)-2-(imidazol-1-ylmethyl)-1,3-dioxolan-4-yl]methoxy]phenyl]piperazine (Ketoconazole) was used as a reference compound (hereinafter referred to as compound A).

[2] = system: Candida albicans IFO 1270; assay: Survival of mice intravenously inoculated with Candida albicans, oral treatment (Test Example 2); assay type: in vivo; details: male ddy mice, i.v. Candida albicans IFO 1270 (1 x 10⁸ cells/kg); 10 mg/kg orally once a day for three days; 10th day from inoculation
Experimental: Six-week-old male ddy mice were used as test animals (10 animals per control group; 5 animals per test group). Each animal was intravenously inoculated with Candida albicans IFO 1270 (1 x 10⁸ cells/kg) which has been subcultured on Sabouraud's glucose agar at 37 °C for 24 hours.
After the inoculation, each test compound was orally administered at a dosage of 10 mg/kg to the animal once a day for consecutive three days.
On the 10th day from the inoculation, the survival rate was monitored.

Structure (SMILES)	Growth Inhibition (%) ([1]; 0.1 µg/mℓ)	Growth Inhibition (%) ([1]; 10 µg/mℓ)	Rate of Survival (%) [2] [%]
C/C(=C\c1ccc(C#N)cc1)C(O)(Cn1cncn1)c1ccc(F)cc1F (racemic) [Compound No. 5, 2-(2,4-Difluorophenyl)-2-[1-methyl-2(4-cyanophenyl)ethenyl]-1-triazolyl-2-ethanol]	72	96	100
C/C(=C\c1ccc(C(=O)NNC=O)cc1)C(O)(Cn1cncn1)c1ccc(F)cc1F (racemic) [compound 15]	3	55	60
C/C(=C\c1ccc(-c2nc[nH]n2)cc1)C(O)(Cn1cncn1)c1ccc(F)cc1F (racemic) [compound 23]	8	67	
C/C(=C\c1ccc(SC(C)(C)C)cc1)C(O)(Cn1cncn1)c1ccc(F)cc1F (racemic) [compound 26]	48	67	
C/C(=C\C=C\c1ccc(C(F)(F)F)cc1)C(O)(Cn1cncn1)c1ccc(F)cc1F (racemic) [compound 37]	50	78	100
C/C(=C\c1ccc(C(=O)N2CCOCC2)cc1)C(O)(Cn1cncn1)c1ccc(F)cc1F (racemic) [Compound No. 3]	0	76	40
C/C(=C\c1ccccn1)C(O)(Cn1cncn1)c1ccc(F)cc1F (racemic) [compound 9]	72	84	20
C/C(=C\C#Cc1ccc(F)cc1)C(O)(Cn1cncn1)c1ccc(F)cc1F (racemic) [compound 36]	71	78	100
CC(=Cn1cncn1)C(O)(Cn1cncn1)c1ccc(F)cc1 (centres unmarked) [Compound No. 14]			100
C/C(=C\c1cccs1)C(O)(Cn1cncn1)c1ccc(F)cc1F (racemic) [compound 10]	13	62	40
C/C(=C\c1ccc(OCC(F)(F)C(F)F)cc1)C(O)(Cn1cncn1)c1ccc(F)cc1F (racemic) [compound 7]	60	86	100
C/C(=C\Sc1ccc(F)cc1)C(O)(Cn1cncn1)c1ccc(F)cc1 (racemic) [compound 30]	11	83	40
C/C(=C\c1ccc(OC(F)(F)F)cc1)C(O)(Cn1cncn1)c1ccc(F)cc1F (racemic) [Compound No. 6, 2-(2,4-Difluorophenyl)-2-[1-methyl-2-(4-trifluoromethoxyphenyl)ethenyl]-1-triazolyl-2-ethanol]	63	86	100
CC(=O)N1CCN(c2ccc(OC[C@H]3CO[C@](Cn4ccnc4)(c4ccc(Cl)cc4Cl)O3)cc2)CC1 (relative stereo) [compound A, cis-1-acetyl-4-[4-[[2-(2,4-dichrolophenyl)-2-(imidazol-1-ylmethyl)-1,3-dioxolan-4-yl]methoxy]phenyl]piperazine, reference compound]	62	76	20
C/C(=C\c1ccc(CO)cc1)C(O)(Cn1cncn1)c1ccc(F)cc1F (racemic) [compound 4]	8	65	40
